Measurements taken from the supplement of paper PMC4862054.
Several values for one entry are separate records, joined by “and”; a condition that tells them apart may be missing. Identical values can stand only once.

Tests used:
Conditions in all cases: incubation time: 72 h
BT-474 [1] = assay: normalised viability (% of control), CellTiter-Blue; higher = more viable cells (about 100 = DMSO control)
Description: (§1)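 DSRT, CellTiter-Blue viability, 72 h incubation. Signal is normalised to DMSO and benzethonium chloride controls. Value is the normalised response at dose 3.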

BT-549 [2] = assay: as above
Description: as §1

CAL-120 [3] = assay: as above
Description: as §1

CAL-148 = assay: as above
Description: as §1

CAL-51 = assay: as above
Description: as §1

CAL-85-1 = assay: as above
Description: as §1

DU-4475 = assay: as above
Description: as §1

HCC1599 = assay: as above
Description: as §1

HCC1937 [4] = assay: as above
Description: as §1

HDQ-P1 = assay: as above
Description: as §1

Hs578T [5] = assay: as above
Description: as §1

MDA-MB-231 = assay: as above
Description: as §1

MDA-MB-436 = assay: as above
Description: as §1

MDA-MB-453 = assay: as above
Description: as §1

MDA-MB-468 [6] = assay: as above
Description: as §1

MFM-223 = assay: as above
Description: as §1

SK-BR-3 [7] = assay: as above
Description: as §1

CAL-120 [8] = assay: drug sensitivity score (DSS), CellTiter-Blue viability (DSS (AUC-based score)); higher = stronger viability inhibition; extreme values may be limits of the assay
Description: (§2)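 DSRT with the CellTiter-Blue (resazurin reduction) viability readout, fluorescence 560/590 nm, 72 h incubation. Plates were normalised to DMSO and benzethonium chloride controls. DSS is computed from the area under the fitted dose-response curve (5 or 9 concentrations).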

SK-BR-3 [9] = assay: as above
Description: as §2

BT-474 [10] = assay: drug sensitivity score (DSS), CellTox Green (DSS (AUC-based score)); higher = stronger drug effect (viability inhibition or cytotoxicity); extreme values may be limits of the assay
Procedure, shortened: (§3)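 Normalisation on every plate relied on 0.1 % DMSO and a positive kill control. The plates, 384-well format, held compound at 5 concentrations 10-fold apart across a compound-specific 10,000-fold range, and breast cancer cell lines in 20 µl suspension were incubated on them for 72 h before CellTox Green and then CellTiter-Glo readings. The drug sensitivity score derives from the area under the fitted dose-response curve.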

BT-549 [11] = assay: as above
Procedure, shortened: as §3

CAL-120 [12] = assay: as above
Procedure, shortened: as §3

HCC1143 = assay: as above
Procedure, shortened: as §3

HCC1937 [13] = assay: as above
Procedure, shortened: as §3

Hs578T [14] = assay: as above
Procedure, shortened: as §3

MCF-10A = assay: as above
Procedure, shortened: as §3

MDA-MB-468 [15] = assay: as above
Procedure, shortened: as §3

SMILES | normalised viability (BT-474 [1]; 100 nM) | normalised viability (BT-549 [2]; 100 nM) | normalised viability (CAL-120 [3]; 100 nM) | normalised viability (CAL-148; 10 nM) | normalised viability (CAL-51; 10 nM) | normalised viability (CAL-85-1; 10 nM) | normalised viability (HCC1937 [4]; 100 nM) | normalised viability (MDA-MB-231; 100 nM) | normalised viability (MDA-MB-468 [6]; 100 nM) | normalised viability (SK-BR-3 [7]; 100 nM) | drug sensitivity score (CAL-120 [8]) | drug sensitivity score (SK-BR-3 [9]) | drug sensitivity score (BT-474 [10]) | drug sensitivity score (BT-549 [11]) | drug sensitivity score (CAL-120 [12]) | drug sensitivity score (HCC1143) | drug sensitivity score (HCC1937 [13]) | drug sensitivity score (Hs578T [14]) | drug sensitivity score (MCF-10A) | drug sensitivity score (MDA-MB-468 [15]) | further results
O=C(Nc1c[nH]nc1-c1nc2ccc(CN3CCOCC3)cc2[nH]1)NC1CC1 [AT9283] | 112% | 86% | 57.3% | 82.7% | 100% | 85.7% | 60.9% | 75.2% | 29.4% | 53% | 18.6 | 17.5 | 0 | 0 | 3.42 | 0 | 0 | 0.649 | 0 | 13.2 | normalised viability (DU-4475; 10 nM): 97.5%; normalised viability (HCC1599; 100 nM): 94.8%; normalised viability (HDQ-P1; 10 nM): 112%; normalised viability (Hs578T [5]; 100 nM): 64.4%; normalised viability (MDA-MB-436; 100 nM): 99%; normalised viability (MDA-MB-453; 10 nM): 82.5%; normalised viability (MFM-223; 100 nM): 64%
COc1cc(CCc2cc(NC(=O)c3ccc(N4CC(C)NC(C)C4)cc3)n[nH]2)cc(OC)c1 (configuration not stated) [AZD4547] |  |  |  |  |  |  |  |  |  |  | 0 | 0 | 0 | 0 | 0.0106 | 3.67 | 0 | 0 | 0 | 0 | normalised viability (BT-474 [1]; 10 nM): 131%; normalised viability (BT-549 [2]; 10 nM): 109%; normalised viability (CAL-120 [3]; 10 nM): 94%; normalised viability (CAL-148; 1 nM): 97.5%; normalised viability (CAL-51; 1 nM): 103%; normalised viability (CAL-85-1; 1 nM): 101%; normalised viability (DU-4475; 1 nM): 100%; normalised viability (HCC1599; 10 nM): 83.7%; normalised viability (HCC1937 [4]; 10 nM): 91.8%; normalised viability (HDQ-P1; 1 nM): 112%; normalised viability (Hs578T [5]; 10 nM): 92.7%; normalised viability (MDA-MB-231; 10 nM): 124%; normalised viability (MDA-MB-436; 10 nM): 102%; normalised viability (MDA-MB-453; 1 nM): 107%; normalised viability (MDA-MB-468 [6]; 10 nM): 108%; normalised viability (MFM-223; 10 nM): 59.2%; normalised viability (SK-BR-3 [7]; 10 nM): 97.5%
CCC/C=C/C=C/C(=O)O[C@H]1/C(=C/C(=O)OC)C[C@H]2C[C@H]([C@@H](C)O)OC(=O)C[C@H](O)C[C@@H]3C[C@H](OC(C)=O)C(C)(C)[C@](O)(C[C@@H]4C/C(=C/C(=O)OC)C[C@H](/C=C/C(C)(C)[C@]1(O)O2)O4)O3 [Bryostatin 1] | 102% |  |  |  |  |  | 103% | 97.2% | 101% | 84.1% | 0 | 4.97 | 0 | 0 | 0 | 0 | 4.81 | 0 | 0 | 0 | normalised viability (BT-549 [2]; 1 nM): 94.8%; normalised viability (CAL-120 [3]; 1 nM): 85.4%; normalised viability (CAL-148; 0.1 nM): 90.7%; normalised viability (CAL-51; 0.1 nM): 102%; normalised viability (CAL-85-1; 0.1 nM): 124%; normalised viability (DU-4475; 0.1 nM): 92.1%; normalised viability (HCC1599; 1 nM): 110%; normalised viability (HDQ-P1; 0.1 nM): 106%; normalised viability (Hs578T [5]; 1 nM): 63%; normalised viability (MDA-MB-436; 1 nM): 126%; normalised viability (MDA-MB-453; 0.1 nM): 99%; normalised viability (MFM-223; 1 nM): 98.7%
CO[C@@H](C(=O)N1Cc2[nH]nc(NC(=O)c3ccc(N4CCN(C)CC4)cc3)c2C1)c1ccccc1 [Danusertib] | 80.8% | 102% | 64.8% | 79.9% | 105% | 93.6% | 99.9% | 79% | 59.4% | 62.4% | 10.5 | 0 | 0 | 1.26 | 3.17 | 0 | 1.64 | 15.2 | 0.832 | 13.7 | normalised viability (DU-4475; 10 nM): 91%; normalised viability (HCC1599; 100 nM): 77.2%; normalised viability (HDQ-P1; 10 nM): 104%; normalised viability (Hs578T [5]; 100 nM): 67.1%; normalised viability (MDA-MB-436; 100 nM): 95.1%; normalised viability (MDA-MB-453; 10 nM): 79.6%; normalised viability (MFM-223; 100 nM): 44%
Cc1c(CN2CCN(C(=O)[C@H](C)O)CC2)sc2c(N3CCOCC3)nc(-c3cnc(N)nc3)nc12 [GDC-0980] | 90.2% | 81.9% | 71.7% | 96.2% | 101% | 100% | 76.7% | 59.2% | 85.3% | 45.3% | 17.5 | 22.4 | 4.57 | 0 | 0 | 3.43 | 0 | 0 | 0 | 0 | normalised viability (DU-4475; 10 nM): 92.7%; normalised viability (HCC1599; 100 nM): 67.8%; normalised viability (HDQ-P1; 10 nM): 94%; normalised viability (Hs578T [5]; 100 nM): 82.2%; normalised viability (MDA-MB-436; 100 nM): 85.6%; normalised viability (MDA-MB-453; 10 nM): 96.1%; normalised viability (MFM-223; 100 nM): 65.4%
Nc1cccc2c1CN(C1CCC(=O)NC1=O)C2=O (configuration not stated) [Lenalidomide] | 115% and 94.3% | 92.2% and 101% | 71.4% and 84.9% | 88% and 92.2% | 106% and 104% | 88.2% and 90.5% | 92.2% and 102% | 88.9% and 87.4% | 100% and 94.2% | 73.6% and 88.2% | 0 | 0 | 0 | 0 | 0 | 0 | 0 | 0 | 0 | 0 | normalised viability (DU-4475; 10 nM): 103% and 112%; normalised viability (HCC1599; 100 nM): 117% and 96.9%; normalised viability (HDQ-P1; 10 nM): 101% and 93.8%; normalised viability (Hs578T [5]; 100 nM): 85.7% and 86.3%; normalised viability (MDA-MB-436; 100 nM): 80% and 93.4%; normalised viability (MDA-MB-453; 10 nM): 93% and 103%; normalised viability (MFM-223; 100 nM): 91.3% and 90.2%
